“Also recorded” adds a separate entry of the source.
Experiments:
[1] = system: IL-2 induced STAT5 phosphorylation in spleenocytes; experiment: IL-2 induced STAT5 phosphorylation in spleenocytes; format: cell-based, mouse; details: wild type mice, inhibitor 1 h, 10 ng/ml IL-2
Experimental: (A) Single cell suspensions were prepared from the spleens of wild type mice. […] Cells were then stimulated with 10 ng/ml IL-4 for 30 min and the levels of phosphorylated STAT6 determined by immunoblotting. (B) As (A) except cells were stimulated with 10 ng/ml IL-2 and the levels of phosphorylated STAT5 determined. (C) CD8 T cells were expanded from the lymph nodes of wild type and JAK3 Cys905Ser knockin mice. Cells were rested in the absence of IL-2 for 60 min then incubated with the indicated concentrations of PF-06651600 for a further 30 min before stimulation with 10 ng/ml of IL-2 for 30 min. The levels of phosphorylated STAT5 and total ERK1/2 were then determined.
(§1) Cells were lysed directly into SDS sample buffer and aliquots run on 10% polyacrylamide gels using standard methods. Proteins were transferred onto nitrocellulose membranes, and specific proteins were detected by immunoblotting. […] Bands were detected using Clarity ECL reagents from BioRad and imaged on a Licor Odyssey Fc system. Quantification was carried out using Licor Image Studio software. After correction for the ERK1/2 levels to account for loading differences, percentage inhibition was calculated relative to the IL-4 stimulated condition. IC50 values were calculated using the same methods as for the in vitro IC50 values.

[2] = system: GM-CSF induced STAT5 phosphorylation in BMDMs; experiment: GM-CSF induced STAT5 phosphorylation in macrophages; format: cell-based, mouse; details: wild type BMDMs, 10 μM inhibitor 2 h, 10 ng/ml GM-CSF
Experimental: (A) BMDMs were isolated from wild type mice. Cells were incubated with the indicated inhibitors in μM for 2 h before stimulation with 10 ng/ml IL-4 for 30 min. The levels of phosphorylated STAT6 were then determined by immunoblotting. (B) As (A) except cells were stimulated 10 ng/ml GM-CSF and the levels of phosphorylated STAT5 determined. (C) As (A) except cells were stimulated 10 ng/ml IL-10 and the levels of phosphorylated STAT3 determined. (D) As (A) except cells were stimulated 10 ng/ml IFNβ and the levels of phosphorylated STAT1 determined. For A–D, levels of ERK1/2 were determined as a loading control.
Bone marrow derived macrophages (BMDMs) were cultured as described. Briefly, bone marrow was flushed in PBS from the femurs and tibias of mice. […]
as §1

MEKK1 = MEKK1 (Homo sapiens, UniProt Q13233); experiment: Selectivity screen MEKK1; format: biochemical; details: 1 µM inhibitor, mean
Sequence of MEKK1 (Q13233 whole entry): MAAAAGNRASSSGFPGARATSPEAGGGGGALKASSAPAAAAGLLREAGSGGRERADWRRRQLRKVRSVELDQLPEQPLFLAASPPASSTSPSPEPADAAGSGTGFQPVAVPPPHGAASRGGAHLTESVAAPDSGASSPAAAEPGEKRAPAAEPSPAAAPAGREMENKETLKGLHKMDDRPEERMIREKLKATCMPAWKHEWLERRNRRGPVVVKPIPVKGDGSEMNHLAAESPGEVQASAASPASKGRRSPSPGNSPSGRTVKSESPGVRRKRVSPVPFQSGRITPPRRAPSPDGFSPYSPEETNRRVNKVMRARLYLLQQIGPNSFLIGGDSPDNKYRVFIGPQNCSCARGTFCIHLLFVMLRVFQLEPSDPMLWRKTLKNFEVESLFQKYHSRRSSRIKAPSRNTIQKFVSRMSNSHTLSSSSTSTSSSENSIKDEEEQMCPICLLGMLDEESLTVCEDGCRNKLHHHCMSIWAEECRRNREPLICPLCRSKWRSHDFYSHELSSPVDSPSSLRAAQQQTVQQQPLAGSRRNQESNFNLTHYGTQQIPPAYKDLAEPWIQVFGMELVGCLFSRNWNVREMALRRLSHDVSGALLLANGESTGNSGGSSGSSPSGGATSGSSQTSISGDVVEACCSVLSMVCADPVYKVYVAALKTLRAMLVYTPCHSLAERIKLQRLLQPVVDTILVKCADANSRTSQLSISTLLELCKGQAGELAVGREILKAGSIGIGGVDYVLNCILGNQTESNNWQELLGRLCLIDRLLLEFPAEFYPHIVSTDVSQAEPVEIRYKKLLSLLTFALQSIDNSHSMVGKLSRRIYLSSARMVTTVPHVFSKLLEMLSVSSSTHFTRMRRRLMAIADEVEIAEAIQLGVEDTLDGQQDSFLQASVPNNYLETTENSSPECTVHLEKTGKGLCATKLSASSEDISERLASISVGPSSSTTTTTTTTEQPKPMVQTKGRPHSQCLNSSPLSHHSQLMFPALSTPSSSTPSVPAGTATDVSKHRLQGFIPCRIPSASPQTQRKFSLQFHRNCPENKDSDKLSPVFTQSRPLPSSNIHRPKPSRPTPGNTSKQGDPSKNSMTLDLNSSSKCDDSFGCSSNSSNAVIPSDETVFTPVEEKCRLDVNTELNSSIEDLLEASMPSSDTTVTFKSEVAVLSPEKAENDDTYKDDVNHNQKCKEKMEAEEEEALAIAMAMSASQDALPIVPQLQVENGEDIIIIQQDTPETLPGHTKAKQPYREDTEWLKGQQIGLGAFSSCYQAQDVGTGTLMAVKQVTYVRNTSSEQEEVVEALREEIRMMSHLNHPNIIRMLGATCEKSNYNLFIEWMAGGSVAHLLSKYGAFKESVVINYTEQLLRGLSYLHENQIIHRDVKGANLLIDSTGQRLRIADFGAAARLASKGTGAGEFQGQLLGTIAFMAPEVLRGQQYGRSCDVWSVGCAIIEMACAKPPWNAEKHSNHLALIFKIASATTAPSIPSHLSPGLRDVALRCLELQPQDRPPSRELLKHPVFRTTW
Experimental: (§2) For the in vitro kinase assay, JAK3 (5–20 mU diluted in 50 mM Tris pH 7.5, 0.1 mM EGTA, 0.05% β-mercaptoethanol, 1 mg/ml BSA) was assayed against PDKtide ([…]) in a final volume of 25.5 µl containing 50 mM Tris pH 7.5, 0.1 mM EGTA, 0.05% β-mercaptoethanol, 100 µM substrate peptide, 10 mM magnesium acetate and 0.02 mM [33P-γ-ATP] (50–1000 cpm/pmole) and incubated for 30 min at room temperature. Assays were started by the addition of the ATP and stopped by addition of 5 µl of 0.5 M (3%) orthophosphoric acid and then harvested onto P81 Unifilter plates with a wash buffer of 50 mM orthophosphoric acid. To determine the Km for ATP, assays were run using 1, 5, 10, 20, 50, 100, 200, 400, 500 μM ATP and Km derived by non-linear regression fitting to the Michaelis–Menten equation v = Vmax[S]/(Km + [S]). IC50 values for inhibitors via non-linear regression using a parameter model: Y = Bottom + (Top–Bottom)/(1 + (IC50/X)^HillSlope). Non-linear regression was carried out in Prism (version 8). In vitro selectivity screen was carried out as described previously.

SRPK1 = SRPK1 (Homo sapiens, UniProt Q96SB4); experiment: Selectivity screen SRPK1; format: biochemical; details: 1 µM inhibitor, mean
Sequence of SRPK1 (Q96SB4 whole entry): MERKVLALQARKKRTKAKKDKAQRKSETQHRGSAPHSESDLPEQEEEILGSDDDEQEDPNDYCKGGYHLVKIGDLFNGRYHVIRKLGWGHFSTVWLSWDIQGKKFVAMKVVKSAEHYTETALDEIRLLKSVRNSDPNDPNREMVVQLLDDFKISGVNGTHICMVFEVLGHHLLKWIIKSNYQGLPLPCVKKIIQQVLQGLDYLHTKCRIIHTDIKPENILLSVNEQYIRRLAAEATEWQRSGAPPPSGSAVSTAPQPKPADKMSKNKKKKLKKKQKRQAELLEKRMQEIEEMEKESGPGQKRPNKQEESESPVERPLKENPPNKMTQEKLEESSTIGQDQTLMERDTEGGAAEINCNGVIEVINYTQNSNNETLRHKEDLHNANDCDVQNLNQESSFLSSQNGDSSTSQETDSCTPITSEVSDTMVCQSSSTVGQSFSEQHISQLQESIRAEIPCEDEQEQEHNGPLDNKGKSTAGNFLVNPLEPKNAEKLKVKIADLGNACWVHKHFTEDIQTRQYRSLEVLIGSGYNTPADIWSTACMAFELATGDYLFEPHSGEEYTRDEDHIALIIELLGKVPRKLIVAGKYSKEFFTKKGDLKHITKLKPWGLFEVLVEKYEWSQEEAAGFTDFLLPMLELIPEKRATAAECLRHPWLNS
Experimental: as §2

PDGFRA = PDGFRA (Homo sapiens, UniProt P16234); experiment: Selectivity screen PDGFRA; format: biochemical; details: 1 µM inhibitor, mean
Experimental: as §2

TTBK1 = TTBK1 (Homo sapiens, UniProt Q5TCY1); experiment: Selectivity screen TTBK1; format: biochemical; details: 1 µM inhibitor, mean
Experimental: as §2

p38a MAPK = p38a MAPK (Homo sapiens, UniProt Q16539); experiment: Selectivity screen p38a MAPK; format: biochemical; details: 1 µM inhibitor, mean
Experimental: as §2

panel of 139 kinases = experiment: In vitro selectivity screen, whole panel; format: biochemical; details: 1 μM, panel of 139 kinases in vitro
Experimental: as §2

BRK = BRK (Homo sapiens, UniProt Q13882); experiment: Selectivity screen BRK; format: biochemical; details: 1 µM inhibitor, mean
Sequence of BRK (Q13882 whole entry): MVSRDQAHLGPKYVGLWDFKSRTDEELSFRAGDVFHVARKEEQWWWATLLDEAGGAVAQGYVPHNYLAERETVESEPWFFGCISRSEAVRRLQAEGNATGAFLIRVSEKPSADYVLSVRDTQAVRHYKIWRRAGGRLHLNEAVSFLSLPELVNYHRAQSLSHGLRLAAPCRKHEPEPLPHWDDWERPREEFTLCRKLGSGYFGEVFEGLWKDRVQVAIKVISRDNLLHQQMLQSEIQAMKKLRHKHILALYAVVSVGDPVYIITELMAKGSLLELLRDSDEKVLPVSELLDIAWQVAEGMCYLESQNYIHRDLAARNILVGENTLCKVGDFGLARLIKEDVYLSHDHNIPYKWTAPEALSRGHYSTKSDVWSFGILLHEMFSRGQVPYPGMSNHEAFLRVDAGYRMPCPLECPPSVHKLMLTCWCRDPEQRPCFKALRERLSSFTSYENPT

MPSK1 = MPSK1 (Homo sapiens, UniProt O75716); experiment: Selectivity screen MPSK1; format: biochemical; details: 1 µM inhibitor, mean
Sequence of MPSK1 (O75716 whole entry): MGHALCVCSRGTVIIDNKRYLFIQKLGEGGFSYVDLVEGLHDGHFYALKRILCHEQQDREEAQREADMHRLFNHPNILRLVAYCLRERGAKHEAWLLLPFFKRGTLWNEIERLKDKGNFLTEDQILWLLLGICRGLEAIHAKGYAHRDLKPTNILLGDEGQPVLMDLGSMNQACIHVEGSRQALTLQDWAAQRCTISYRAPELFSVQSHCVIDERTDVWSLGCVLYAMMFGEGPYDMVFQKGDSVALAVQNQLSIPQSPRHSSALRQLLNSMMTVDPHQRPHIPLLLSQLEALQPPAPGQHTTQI
Experimental: as §2

RIPK2 = RIPK2 (Homo sapiens, UniProt O43353); experiment: Selectivity screen RIPK2; format: biochemical; details: 1 µM inhibitor, mean
Sequence of RIPK2 (O43353 whole entry): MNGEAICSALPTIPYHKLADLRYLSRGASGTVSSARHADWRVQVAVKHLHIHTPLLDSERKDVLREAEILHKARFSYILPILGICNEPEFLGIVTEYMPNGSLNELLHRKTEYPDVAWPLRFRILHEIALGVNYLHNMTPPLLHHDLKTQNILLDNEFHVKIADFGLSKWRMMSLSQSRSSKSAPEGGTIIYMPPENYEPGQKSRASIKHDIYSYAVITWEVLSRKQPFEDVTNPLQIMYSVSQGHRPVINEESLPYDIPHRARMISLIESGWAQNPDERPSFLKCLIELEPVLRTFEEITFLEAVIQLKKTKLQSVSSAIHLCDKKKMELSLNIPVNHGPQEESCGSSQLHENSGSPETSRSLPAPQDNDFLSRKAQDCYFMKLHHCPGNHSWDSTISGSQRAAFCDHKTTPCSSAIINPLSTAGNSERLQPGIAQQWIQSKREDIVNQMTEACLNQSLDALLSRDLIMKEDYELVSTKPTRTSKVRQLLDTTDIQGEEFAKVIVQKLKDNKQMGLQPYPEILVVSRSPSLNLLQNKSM
Experimental: as §2

MKK1 = MKK1 (Homo sapiens, UniProt Q02750); experiment: Selectivity screen MKK1; format: biochemical; details: 1 µM inhibitor, mean
Experimental: as §2

MARK3 = MARK3 (Homo sapiens, UniProt P27448); experiment: Selectivity screen MARK3; format: biochemical; details: 1 µM inhibitor, mean
Experimental: as §2

NUAK1 = NUAK1 (Homo sapiens, UniProt O60285); experiment: Selectivity screen NUAK1; format: biochemical; details: 1 µM inhibitor, mean
Experimental: as §2

DYRK1A = DYRK1A (Homo sapiens, UniProt Q13627); experiment: Selectivity screen DYRK1A; format: biochemical; details: 1 µM inhibitor, mean
Experimental: as §2

TSSK1 = TSSK1 (Homo sapiens, UniProt Q9BXA7); experiment: Selectivity screen TSSK1; format: biochemical; details: 1 µM inhibitor, mean
Sequence of TSSK1 (Q9BXA7 whole entry): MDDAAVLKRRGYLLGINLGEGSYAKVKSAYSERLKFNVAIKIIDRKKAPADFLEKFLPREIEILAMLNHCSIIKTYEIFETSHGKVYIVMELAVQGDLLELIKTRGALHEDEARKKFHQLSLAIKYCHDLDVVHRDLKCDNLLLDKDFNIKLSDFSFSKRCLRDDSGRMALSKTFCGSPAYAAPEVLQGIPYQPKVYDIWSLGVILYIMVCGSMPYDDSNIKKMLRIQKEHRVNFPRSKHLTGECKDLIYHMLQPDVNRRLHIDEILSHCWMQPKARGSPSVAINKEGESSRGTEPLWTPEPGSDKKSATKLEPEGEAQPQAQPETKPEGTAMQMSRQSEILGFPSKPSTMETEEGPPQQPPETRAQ
Experimental: as §2

PRAK = PRAK (Homo sapiens, UniProt Q8IW41); experiment: Selectivity screen PRAK; format: biochemical; details: 1 µM inhibitor, mean
Sequence of PRAK (Q8IW41 whole entry): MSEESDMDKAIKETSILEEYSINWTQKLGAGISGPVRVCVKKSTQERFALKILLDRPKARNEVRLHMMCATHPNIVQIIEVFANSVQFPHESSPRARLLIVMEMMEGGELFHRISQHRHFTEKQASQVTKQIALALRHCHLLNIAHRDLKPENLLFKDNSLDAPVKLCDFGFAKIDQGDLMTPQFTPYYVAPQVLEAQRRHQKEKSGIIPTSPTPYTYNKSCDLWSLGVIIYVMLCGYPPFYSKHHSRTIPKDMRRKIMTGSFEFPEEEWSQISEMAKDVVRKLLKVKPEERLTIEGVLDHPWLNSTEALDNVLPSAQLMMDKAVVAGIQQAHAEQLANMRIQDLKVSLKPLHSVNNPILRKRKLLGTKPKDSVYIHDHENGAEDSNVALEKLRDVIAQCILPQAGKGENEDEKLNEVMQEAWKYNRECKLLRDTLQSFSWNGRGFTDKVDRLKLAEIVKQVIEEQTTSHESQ
Experimental: as §2

CHK1 = CHK1 (Homo sapiens, UniProt O14757); experiment: Selectivity screen CHK1; format: biochemical; details: 1 µM inhibitor, mean
Sequence of CHK1 (O14757 whole entry): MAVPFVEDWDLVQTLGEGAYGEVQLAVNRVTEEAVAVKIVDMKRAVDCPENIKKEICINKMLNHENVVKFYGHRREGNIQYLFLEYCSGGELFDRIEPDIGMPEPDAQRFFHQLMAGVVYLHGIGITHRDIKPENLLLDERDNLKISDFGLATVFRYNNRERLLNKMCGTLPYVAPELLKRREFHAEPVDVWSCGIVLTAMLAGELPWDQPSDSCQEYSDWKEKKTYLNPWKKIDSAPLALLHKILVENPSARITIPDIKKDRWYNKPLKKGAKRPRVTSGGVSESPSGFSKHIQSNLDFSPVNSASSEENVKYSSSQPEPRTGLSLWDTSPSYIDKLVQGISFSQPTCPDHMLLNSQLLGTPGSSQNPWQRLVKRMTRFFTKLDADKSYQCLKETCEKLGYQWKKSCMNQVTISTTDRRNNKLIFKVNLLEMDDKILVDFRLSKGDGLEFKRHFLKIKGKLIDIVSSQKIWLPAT
Experimental: as §2

MKK6 = MKK6 (Homo sapiens, UniProt P52564); experiment: Selectivity screen MKK6; format: biochemical; details: 1 µM inhibitor, mean
Experimental: as §2

Row | SMILES | block of IL-2 induced STAT5 phosphorylation in spleenocytes [1] | inhibition of GM-CSF induced STAT5 phosphorylation [2] | activity remaining in the presence of the inhibitor: MEKK1 (MEKK1) | activity remaining in the presence of the inhibitor: SRPK1 (SRPK1) | activity remaining in the presence of the inhibitor: PDGFRA (PDGFRA) | activity remaining in the presence of the inhibitor: TTBK1 (TTBK1) | activity remaining in the presence of the inhibitor: p38a MAPK (p38a MAPK) | number of other kinases inhibited by more than 80% (panel of 139 kinases) | activity remaining in the presence of the inhibitor: BRK (BRK) | activity remaining in the presence of the inhibitor: MPSK1 (MPSK1) | activity remaining in the presence of the inhibitor: RIPK2 (RIPK2) | activity remaining in the presence of the inhibitor: MKK1 (MKK1) | activity remaining in the presence of the inhibitor: MARK3 (MARK3) | activity remaining in the presence of the inhibitor: NUAK1 (NUAK1) | activity remaining in the presence of the inhibitor: DYRK1A (DYRK1A) | activity remaining in the presence of the inhibitor: TSSK1 (TSSK1) | activity remaining in the presence of the inhibitor: PRAK (PRAK) | activity remaining in the presence of the inhibitor: CHK1 (CHK1) | activity remaining in the presence of the inhibitor: MKK6 (MKK6)
1 | C=CC(=O)N1C[C@H](Nc2ncnc3[nH]ccc23)CC[C@@H]1C [PF-06651600, 1-((2S,5R)-5-((7H-Pyrrolo[2,3-d]pyrimidin-4-yl)amino)-2-methylpiperidin-1-yl)prop-2-en-1-one, reference compound] | able to block | Neither TL8-52 or PF-06651600 inhibited; also recorded: did not block |  |  |  |  |  |  |  |  |  |  |  |  |  |  |  |  | 
2 | C=CC(=O)Nc1cccc(CNc2nc(Nc3ccc(N4CCN(C)CC4)cc3OC)ncc2Cl)c1 [TL6-144] |  |  | 95 | 91 | 67 | 80 | 96 | 4 | 94 | 91 | 92 | 79 | 48 | 4 | 90 | 34 | 93 | 93 | 104
3 | C=CC(=O)Nc1cccc(CNc2nc(Nc3ccc(N4CCOCC4)cc3)ncc2Cl)c1 [TL8-52] | able to block | Neither TL8-52 or PF-06651600 inhibited | 103 | 97 | 35 | 100 | 119 | 8 | 94 | 98 | 71 | 84 | 21 | 3 | 100 | 57 | 113 | 91 | 105

— paper PMC8115619, “Generation of a chemical genetic model for JAK3” (Scientific Reports, 2021)
